Data from PubChem BioAssay (NCI).
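These data come from cells grown in 96-well plates and exposed to compound for 48 hours at five concentrations. TGI is the concentration that stops growth completely.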

Columns and labels:
Assay in all cases: inhibition of tumour cell growth, NCI panel, 48 h
ACHN renal = system: ACHN renal
EKVX NSCLC = system: EKVX NSCLC
HCC-2998 colon = system: HCC-2998 colon
HOP-62 NSCLC = system: HOP-62 NSCLC
HOP-92 NSCLC = system: HOP-92 NSCLC
KM12 colon = system: KM12 colon
MALME-3M melanoma = system: MALME-3M melanoma
MDA-N = system: MDA-N
NCI-H23 lung = system: NCI-H23 lung
OVCAR-4 ovarian = system: OVCAR-4 ovarian
OVCAR-8 ovarian = system: OVCAR-8 ovarian
RPMI-8226 leukemia = system: RPMI-8226 leukemia
RXF 393 renal = system: RXF 393 renal
SNB-19 CNS = system: SNB-19 CNS
SR leukemia = system: SR leukemia
SW-620 colon = system: SW-620 colon
UO-31 renal = system: UO-31 renal

Row | SMILES | TGI (ACHN renal) [µM] | TGI (EKVX NSCLC) [µM] | TGI (HCC-2998 colon) [µM] | TGI (HOP-62 NSCLC) [µM] | TGI (HOP-92 NSCLC) [µM] | TGI (KM12 colon) [µM] | TGI (MALME-3M melanoma) [µM] | TGI (MDA-N) [µM] | TGI (NCI-H23 lung) [µM] | TGI (OVCAR-4 ovarian) [µM] | TGI (OVCAR-8 ovarian) [µM] | TGI (RPMI-8226 leukemia) [µM] | TGI (RXF 393 renal) [µM] | TGI (SNB-19 CNS) [µM] | TGI (SR leukemia) [µM] | TGI (SW-620 colon) [µM] | TGI (UO-31 renal) [µM]
1 | COCN1C(=O)[C@@H]2C[C@@H](O)CN2C(=O)c2ccccc21 | > 100 | > 100 | > 100 | > 100 | > 100 | > 100 | > 100 | > 100 | > 100 | > 100 | > 100 | > 100 | > 100 | > 100 | > 100 | > 100 | > 100
2 | CCCCCCCCCCC/C=C(/C(=O)CCCO[Si](C)(C)C(C)(C)C)C(=O)OC | > 100 | > 100 | > 100 | > 100 | > 100 | > 100 | > 100 | > 100 | > 100 | > 100 | > 100 | > 100 | > 100 | > 100 | > 100 | > 100 | > 100
3 | O=C1c2cc3c(cc2CC12Cc1ccccc1C2)CCC3 | 97.7 | > 100 | > 100 | 92 | 64.3 | 56.9 | 71.5 | 86.8 | > 100 | > 100 | 76.7 | 68.2 | 67.2 | > 100 | 74.7 | > 100 | > 100
4 | COc1ccc(C2(CC(C)C)CCNC2)cc1OC (centres undefined) | > 100 | > 100 | 38.5 | > 100 | > 100 | > 100 | > 100 | > 100 | > 100 | > 100 | > 100 | > 100 | > 100 | > 100 | > 100 | > 100 | > 100
5 | Cc1n[nH]c(=O)n1C1CC1 | > 100 | > 100 | > 100 | > 100 | > 100 | > 100 | > 100 | > 100 | > 100 | > 100 | > 100 | > 100 | > 100 | > 100 | > 100 | > 100 | > 100
6 | Cc1cc(C)n(-c2nc(-n3nc(C)cc3C)nc(-n3nc(C)cc3C)n2)n1 | > 100 | > 100 | > 100 | > 100 | > 100 | > 100 | > 100 | > 100 | > 100 | > 100 | > 100 | > 100 | > 100 | > 100 | > 100 | > 100 | > 100
7 | CCCC(=O)OCC1OC(n2cc(F)c(=O)[nH]c2=O)C(F)C1O (centres undefined) | > 100 | > 100 | > 100 | > 100 | > 100 | > 100 | > 100 | > 100 | > 100 | > 100 | > 100 | > 100 | > 100 | > 100 | > 100 | > 100 | > 100
